# Experimental data as given in PMC12567398, “New Assay Systems to Characterize the Broad-Spectrum Antiherpesviral and Non-Herpesviral Activity of Cyclin-Dependent Kinase (CDK) 8 Inhibitors” (Pharmaceuticals, 2025).
# Legend:
# SARS-CoV-2 d6-YFP = details: read-out: Antiviral mean EC50 based on YFP measurements; SARS-CoV-2 d6-YFP; Caco-2; […]
# Caco-2 cells = experiment: Neutral Red uptake cell viability assay, Caco-2; details: read-out: mean CC50; Caco-2 (Fig 7D)
compound,measurement,setting,value
O=c1nc(NO)ccn1[C@@H]1O[C@H](CO)[C@@H](O)[C@H]1O [EIDD-1931],EC50,SARS-CoV-2 d6-YFP,4.1 ± 1.4 µM
same,CC50,Caco-2 cells,> 100 µM
